From ChEMBL document CHEMBL4311946, “Mechanistic Insight on the Mode of Action of Colletoic Acid” (J Med Chem, 2019)
Active and inactive are the calls of the source. No cut-off for these calls is given here.

What was measured:
Homo sapiens = experiment: Anti-adipogenic activity in human subcutaneous preadipocytes assessed as decrease in lipid accumulation at 50 uM measured after 3 days under induction medium containing hydrocortisone hemi-succinate by oil red O staining-based microscopic analysis; type: functional, cell-based
[1] = Half life in mouse liver microsomes; type: ADME, Microsome
[2] = Half life in simulated gastric fluid; type: ADME

- t1/2 [1]: 1.33 h
- half-life [2]: < 2 h
Compound: CC1=CC[C@@]2(C[C@@H]1O)[C@@H](C(=O)O)CC[C@H]2C(C)C
- Activity (Homo sapiens): inactive
